Measurements: patent US20110028420A1, “Regression of Established Atherosclerotic Plaques, and Treating Sudden-Onset Asthma Attacks, using PARP Inhibitors” (priority 2008, published 2011)
Marks after values point to notes of the source that are not given here.

Columns and labels:
[1] = system: C57BL/6 ApoE−/− mice; test: Atherosclerotic plaque size and number in aortas of high-fat-diet-fed ApoE−/− mice (en face Oil-Red-O staining); type: in vivo
From the text: (§1) C57BL/6 ApoE^−/− mice (Jackson Laboratory, Bar Harbor, Me.) were housed and bred in a pathogen-free animal care facility at LSUHSC (New Orleans, La.), and were given full access to laboratory rodent chow and water. Principles of laboratory animal care were followed (NIH publication No. 86-23, revised 1985). Experimental protocols were approved by the LSUHSC Animal Care and Use Committee. The animals were divided into six groups to provide proper controls, and to allow calculation of the significance of the results. All Groups were ApoE^−/− mice. The mice were fed a regular diet or a high fat diet for 12 or 16 weeks; in some cases mice that had been fed a high fat diet for 12 weeks were switched to a regular diet for the final 4 weeks (16 weeks total). Some mice were given injections of TIQ-A during the final four weeks, while others were injected with vehicle as controls:
(§2) The high-fat diet (Harlan Teklad, Madison, Wis.) contained 21% fat by weight (0.15% cholesterol). The regular diet was normal laboratory rodent chow. Controls were given i.p. injections of vehicle three times per week, during the final four weeks. Experimental Groups received i.p. injections of the PARP inhibitor thieno[2,3-c]isoquinolin-5-one (TIQ-A) (Sigma-Aldrich, St Louis, Mo.) at the rate of 3 mg/kg, three times per week, during the last 4 weeks. At the conclusion of each protocol, the mice were fasted, anesthetized with ketamine/xylazine (60 and 3 mg/kg, respectively), and blood was drawn for serum preparation.
(§3) Perfusion-fixed aortas were dissected and prepared either for en face, Oil-Red-O staining using standard protocols, or for embedding in paraffin. Tissues were sectioned and were stained following standard protocols with haematoxylin and eosin (H&E), trichrome staining, or immunohistochemistry (IHC). Lesion areas were assessed as described in K. Oumona-Benachour et al. (2007). IHC used antibodies against murine smooth muscle actin (SMA) (Santa Cruz Biotechnologies, Santa Cruz, Calif.), or antibodies against CD68. Immunoreactivity was assessed in captured images of immunostained stained sections as described in K. Oumona-Benachour et al. (2007).

[2] = system: C57BL/6 ApoE−/− mice; test: Histology, trichrome staining and immunohistochemistry (SMA, CD68, MCP-1) of atherosclerotic plaques; type: in vivo
From the text: as §1, §2, §3

[3] = system: ICAM-1; test: Quantitative RT-PCR of ICAM-1 in thoracic aorta; type: in vivo; settings: thoracic aortas of Group 6 mice
From the text: RNA was extracted from thoracic aortas, and cDNA was generated by standard methods. PCR Primers for MCP-1 and for actin were as described in C. Hans et al., “Thieno[2,3-c]isoquinolin-5-one (TIQ-A), a potent poly(ADP-ribose) polymerase inhibitor, promotes atherosclerotic plaque regression in high fat diet-fed ApoE-deficient mice: effects on inflammatory markers and lipid content,” J. Pharm. Exp. Ther., vol. 329, pp. 150-158 (2009, published online Jan. 5, 2009). Amplification, detection, and data analysis were performed with the iCycler real-time PCR system (Bio-Rad Laboratories, Hercules, Calif.).
In addition to MCP-1, the recruitment and their retention of monocytes and macrophages within atherosclerotic plaques requires the expression of adhesion molecules by endothelial and intimal cells. In particular, the adhesion molecule ICAM-1 expression is expressed in the later stages of plaques.

[4] = system: C57BL/6 mice; test: Eosinophil and inflammatory cell infiltration in lungs and BAL fluid of OVA-sensitized and challenged mice; type: in vivo
Description: (§4) Mice were bred in a pathogen-free facility at the Louisiana State University Health Science Center (LSUHSC), New Orleans, La., and were given unlimited access to sterilized chow and water. Animal maintenance, experimental protocols, and procedures were approved by the LSUHSC Animal Care & Use Committee. C57BL/6 mice were purchased from Jackson Laboratories (Bar Harbor, Me.). Six-week old C57BL/6 mice (n z 5) were sensitized with two, 100 μg i.p. injections of Grade V chicken ovalbumin (OVA) (Sigma-Aldrich, St. Louis Mo.), mixed with 2 mg aluminum hydroxide in saline. The two injections were given seven days apart. One week after the second sensitization the mice were placed in a Plexiglas chamber and challenged with aerosolized ovalbumin (3% OVA in saline, generated by a Bennett nebulizer, DeVilbiss, Pa.). The challenged mice were held in the chamber with the aerosolized OVA for 30 min. Additional groups of mice were treated by the same protocol, except that they received 6 mg/kg TIQ-A (i.p.) 2 hours prior to challenge, 1 hour post-challenge, or 6 hours post-challenge with OVA. Control groups were neither sensitized, nor challenged. The mice used in each experiment were from the same litter or the same family. Mice were allowed to recover, and then killed by CO2 asphyxiation after 24 or 48 hours. The sacrificed mice were subjected to bronchio-alveolar lavage (BAL), or their lung tissues were dissected, fixed, and processed for histological analysis.
(§5) A final volume of 5 ml saline was used in BAL to assess inflammatory cells (48 hours post OVA-challenge), or 1 ml saline was used to assess cytokines or IgE (24 hours post OVA-challenge). Formalin-fixed lungs were sectioned and subjected to haematoxylin and eosin (H&E), Periodic Acid-Schiff (PAS)-staining using standard protocols. Mucin was assessed essentially as described in L. Whittaker et al., Am. J. Respir. Cell. Mol. Biol., vol. 27, pp. 593-602 (2002). […] OVA-specific IgE was quantified by a sandwich ELISA (Serotec, Raleigh, N.C.) essentially as described in Oumona et al. (2006).

[5] = system: OVA-specific IgE; test: OVA-specific IgE in BAL fluid (sandwich ELISA); type: in vivo, mice; settings: 24 hours post-challenge
Description: Mice were bred in a pathogen-free facility at the Louisiana State University Health Science Center (LSUHSC), New Orleans, La., and were given unlimited access to sterilized chow and water. Animal maintenance, experimental protocols, and procedures were approved by the LSUHSC Animal Care & Use Committee. C57BL/6 mice were purchased from Jackson Laboratories (Bar Harbor, Me.). Six-week old C57BL/6 mice (n z 5) were sensitized with two, 100 μg i.p. injections of Grade V chicken ovalbumin (OVA) (Sigma-Aldrich, St. Louis Mo.), mixed with 2 mg aluminum hydroxide in saline. The two injections were given seven days apart. One week after the second sensitization the mice were placed in a Plexiglas chamber and challenged with aerosolized ovalbumin (3% OVA in saline, generated by a Bennett nebulizer, DeVilbiss, Pa.). The challenged mice were held in the chamber with the aerosolized OVA for 30 min. […]
A final volume of 5 ml saline was used in BAL to assess inflammatory cells (48 hours post OVA-challenge), or 1 ml saline was used to assess cytokines or IgE (24 hours post OVA-challenge). […] Mucin was assessed essentially as described in L. Whittaker et al., Am. […] OVA-specific IgE was quantified by a sandwich ELISA (Serotec, Raleigh, N.C.) essentially as described in Oumona et al. (2006).

[6] = system: C57BL/6 mice; test: Mucus production in airways of OVA-challenged mice (PAS staining, histological mucin index); type: in vivo
Description: as §4, §5

[7] = system: mice; settings: administration prior to allergen challenge; cited from earlier work
[8] = Group 3: high fat diet for 16 weeks, TIQ-A 3 mg/kg i.p. three times per week during last 4 weeks
[9] = Group 6: high fat diet for 12 weeks, then regular diet during last 4 weeks with TIQ-A 3 mg/kg i.p. three times per week

## O=C1N=C2SCC=C2c2ccccc21 [TIQ-A, thieno[2,3-c]isoquinolin-5-one]
[1]; [8]
  Plaque Number (mean ± S.D.) Abdominal Aorta: 5.7 ± 0.94
  Plaque Number (mean ± S.D.) Thoracic Aorta: 6.0 ± 1.53
  Plaque size (median ± S.D.) Abdominal Aorta: 3.06 ± 0.66 mm^2
  Plaque size (median ± S.D.) Thoracic Aorta: 7.18 ± 2.02* mm^2
[1]; Group 6
  Plaque number in the abdominal region (in words): significant reduction in plaque number
  Regression of established plaques, thoracic and abdominal regions of the aorta: statistically significant regression of established plaques
[1]; [9]
  Plaque Number (mean ± S.D.) Abdominal Aorta: 4.0 ± 1.29
  Plaque Number (mean ± S.D.) Thoracic Aorta: 4.20 ± 0.69
  Plaque size (median ± S.D.) Abdominal Aorta: 1.96 ± 0.48 mm^2
  Plaque size (median ± S.D.) Thoracic Aorta: 5.12 ± 1.68*‡† mm^2
[1]; Group 6, difference not statistically significant
  Lesion size in the abdominal region (in words): trended lower
[2]; Group 6
  CD68 immunoreactivity: significantly reduced
  Collagen density by trichrome staining: significant increase in collagen density
  Fibrous cap by trichrome staining: much thicker fibrous cap
  Foam cells in plaques: fewer foam cells
  Plaque size by microscopic examination: much smaller
  Smooth muscle actin immunoreactivity: significant increase
[2]; TIQ-A-treated mice
  MCP-1 immunoreactivity of plaques: decrease
[3]
  Expression of ICAM-1 (quantitative RT-PCR): significantly reduced
[4]; TIQ-A 6 mg/kg i.p. prior to OVA-challenge
  Eosinophil recruitment into lungs: significantly suppressed
[4]; post-challenge administration compared with administration prior to challenge
  Number of eosinophils in BAL fluids: substantially below that seen when the drug was administered prior to challenge
[4]; single TIQ-A i.p. injection one hour or six hours after challenge
  Infiltration of inflammatory cells into the airways: greatly reduced
[5]; TIQ-A after OVA challenge
  IgE production: almost completely blocked
[5]; TIQ-A prior to OVA challenge
  Levels of OVA-specific IgE in BAL fluid: moderate reduction
[6]; TIQ-A one or six hours after challenge
  PAS-positive goblet cells in lungs: nearly absent
[6]; TIQ-A prior to OVA challenge
  Mucus production (histological mucin index): significantly reduced
[6]; post-challenge treatment with TIQ-A
  Mucus production (histological mucin index): effectively blocked mucus production completely
[7]
  Eosinophil infiltration and associated mucus production in lung airways: suppressed
  Th2 cytokines, including IL-4 IL-5 and IL-13: suppressed
